In article PMC11012799 (Molecules, 2024):
In brackets after ≈: the same amount, converted by molar mass.

Tests used:
[1] = test system: Staphylococcus aureus ATCC 6538; assay: MIC, two-fold microdilution (EUCAST), S. aureus reference strain; type: cell-based; settings: Staphylococcus aureus, ATCC6538, 18 h, read-out: MIC (µM) Staphylococcus aureus ATCC 6538
Description: (§1) A panel of reference bacteria, including Escherichia coli NCTC 8196, Staphylococcus aureus ATCC 6538, Klebsiella pneumoniae ATCC 13883, and Pseudomonas aeruginosa NCTC 6749, was used to assess the antibacterial activity of the nine tested aziridine phosphines (1–4) and aziridine phosphine oxides (5–9). The two-fold microdilution method, following EUCAST guidelines, was used to determine a minimal inhibitory concentration (MIC) of each compound, as presented in Table S1.
(§2) Antibacterial activity: The in vitro antibacterial activity of nine tested aziridine phosphines (1–4) and aziridine phosphine oxides (5–9) was evaluated against reference bacterial strains (E. coli NCTC 8196, S. aureus ATCC 6538, K. pneumoniae ATCC 13883, P. aeruginosa NCTC 6749) and 12 S. aureus clinical isolates, including two methicillin-resistant isolates (MRSA, D15 and D17) obtained from infected patients hospitalized at the Oncological Hospital in Lodz (Poland). All strains were kept frozen at −80 °C in Tryptic Soy Broth with 15% glycerol. The minimal inhibitory concentration (MIC) is defined as the lowest concentration of the compound that prevents visible growth of bacteria using the microdilution method followed the EUCAST guidelines. Each compound was added to 96-well microplates in two-fold dilutions at concentrations from 3.125 to 100 μM in Mueller–Hinton broth. […] Bacterial culture was added into wells at a density of 5 × 10^5 CFU mL^−1, and plates were incubated at 37 °C for 18 h. As a positive control, an untreated bacterial culture was used, and a clear culture medium served as a negative control. The optical density at OD600 was measured using the SpectraMax i3 Multi-Mode Platform (Molecular Devices, San Jose, CA, USA). Ciprofloxacin hydrochloride (CIP, Sigma-Aldrich, Darmstadt, Germany) was used as a reference antimicrobial drug.

[2] = test system: clinical S. aureus strains; assay: MIC, microdilution, 12 clinical S. aureus strains; type: cell-based, Staphylococcus aureus; settings: panel of 12 clinical isolates (naso-pharynx, ulcers/furuncles, bones), highest tested concentration 100 µM
Description: as §1, §2

[3] = test system: Escherichia coli NCTC 8196; assay: MIC, two-fold microdilution (EUCAST), E. coli reference strain; type: cell-based; settings: Escherichia coli, NCTC8196, 18 h, read-out: MIC (µM) Escherichia coli NCTC 8196
Description: as §1, §2

[4] = test system: Pseudomonas aeruginosa NCTC 6749; assay: MIC, two-fold microdilution (EUCAST), P. aeruginosa reference strain; type: cell-based; settings: Pseudomonas aeruginosa, NCTC6749, 18 h, read-out: MIC (µM) Pseudomonas aeruginosa NCTC 6749
Description: as §1, §2

Ishikawa cells = assay: cells; type: cell-based, human; settings: for IC50: Homo sapiens, Ishikawa, 24 h, read-out: IC50 (µM) Ishikawa; for selectivity index (SI) Ishikawa: efficacy against Ishikawa versus normal fibroblasts L929, SI > 1.0 = greater efficacy against cancer cells
Procedure: (§3) Considering our previous research and the literature reports on the antitumor activity of aziridine derivatives, aziridine phosphines (1–4) and aziridine phosphine oxides (5–9) were tested to investigate their potential anticancer activity. The in vitro effects on cell viability were assessed using the 3-(4,5-dimethylthiazol-2-yl)-2,5-diphenyltetrazolium bromide (MTT) assay on non-tumorigenic murine fibroblasts (L929) as well as two cancer cell lines: human cervical epithelioid carcinoma (HeLa) cells and endometrial adenocarcinoma (Ishikawa) cells.
(§4) Cell viability inhibition: The in vitro effects on cell viability were determined using the 3-(4,5-dimethylthiazol-2-yl)-2,5-diphenyltetrazolium bromide (MTT) assay on non-tumorigenic murine fibroblasts L929 (ATTC®—CCL-1) as well as two cancer cell lines: human cervical epithelioid carcinoma HeLa cells (ATTC®—CCL-2™) and endometrial adenocarcinoma Ishikawa cells (ECACC 99040201). Cells were cultured on 96-well microplates at a density of 1 × 10^4 cells/well following the international in Dulbecco’s Modified Eagle’s Medium (DMEM, Biowest) supplemented with 10% fetal bovine serum (FBS, Biowest, Nuaillé, France), 100 U/mL of penicillin, and 100 μg/mL of streptomycin (Biowest, Nuaillé, France). After overnight incubation at 37 °C and 5% CO2, the growth medium was removed and 100 μL of fresh media with two-fold dilutions of the tested compounds at concentrations of 3.125–100 μM were added. […] Untreated cells in medium were used as a positive control, while a clear culture medium served as a negative control.

HeLa cells = assay: cells; type: cell-based, human; settings: for IC50: Homo sapiens, 24 h, read-out: IC50 (µM) HeLa; for selectivity index (SI) HeLa: efficacy against HeLa versus normal fibroblasts L929, SI > 1.0 = greater efficacy against cancer cells
Procedure: as §3, §4

L929 cells = assay: cells; type: cell-based, murine; settings: Mus musculus, L929, 24 h, read-out: IC50 (µM) L929
Procedure: as §3, §4

Structure (SMILES)	MIC [1] [µM]	MIC ([2]; Staphylococcus aureus) [µM]	MIC [2] [µM]	MIC [3] [µM]	MIC [4] [µM]	IC50 (Ishikawa cells) [µM]	selectivity index (SI) Ishikawa (Ishikawa cells)	IC50 (HeLa cells) [µM]	selectivity index (SI) HeLa (HeLa cells)	IC50 (L929 cells) [µM]
CC(C)[C@@H]1CN1c1ccccc1P(=O)(c1ccccc1)c1ccccc1 [Compound 5]	50 (≈ 18.1 µg/mL)	100 (≈ 36.1 µg/mL)	100 (≈ 36.1 µg/mL)	> 100	> 100	4.6 ± 2.3	2.3	6.4 ± 2.1	1.7	10.6 ± 3.2
CC(C)C[C@H]1CN1c1ccccc1P(=O)(c1ccccc1)c1ccccc1 [Compound 7]	50 (≈ 18.8 µg/mL)	100 (≈ 37.5 µg/mL)	100 (≈ 37.5 µg/mL)	> 100	> 100	10.5 ± 3.1	1.7	7.1 ± 2.6	2.5	17.5 ± 2.1
